Experimental data as given in patent US20040259765A1, “Formulations of non-steroidal anti-inflammatory agents to treat pathologic ocular angiogenesis” (priority 2003, published 2004).

System: retinal neovascularization
Assay: rat pup model of retinopathy of prematurity (oxygen-induced retinopathy)
Assay type: in vivo
Conditions: local administration, FIG. 1
Protocol: FIG. 1. […] Anecortave acetate was tested for its angiostatic efficacy in a rat pup model of retinopathy of prematurity (Penn, at al., Investigative Ophthalmology & Visual Science, “The Effect of an Angiostatic Steroid on Neovascularization in a Rat Model of Retinopathy of Prematurity,” Vol. 42(1):283-290, January 2001). Newborn rat pups were placed in an atmosphere of varying oxygen content. The rats received a single intravitreal injection of vehicle or anecortave acetate (500 μg) upon return to room air (day 14) or 2 days later (day 16). There was significant retinal neovascularization in the rats that received vehicle injections.

CC(=O)OCC(=O)[C@@]1(O)CC[C@H]2[C@@H]3CCC4=CC(=O)CC[C@]4(C)C3=CC[C@@]21C [Anecortave acetate, 4,9(11)-pregnadien-17α,21-diol-3,20dione-21-acetate]
preretinal neovascularization (neovascular score): inhibits
